According to ChEMBL document CHEMBL2346547, “Bifunctional inhibition of human immunodeficiency virus type 1 reverse transcriptase: mechanism and proof-of-concept as a novel therapeutic design strategy” (J Med Chem, 2013):

Columns and labels:
[1] = molecular target: T1, Human immunodeficiency virus type 1 reverse transcriptase (Human immunodeficiency virus 1, UniProt Q72547); test: Competitive inhibition of C-Terminal histidine-tagged wild type heterodimeric HIV-1 reverse transcriptase p66/p51 assessed as inhibition of dTTP incorporation after 15 mins by PAGE
[2] = molecular target: T1, Human immunodeficiency virus type 1 reverse transcriptase; test: Competitive inhibition of C-Terminal histidine-tagged wild type heterodimeric HIV-1 reverse transcriptase p66/p51 assessed as inhibition of dGTP incorporation after 15 mins by PAGE

SMILES | IC50 [1] [nM] | IC50 [2] [nM]
C#CCOCCOCCOCCOCCOCC#Cc1cc(C)c(Oc2ccnc(Nc3ccc(C#N)cc3)n2)c(C)c1 | 122 | 64
Cc1cc(C#CCOCCOCCOCCOCCOCC#Cc2cn([C@H]3C=C[C@@H](COP(=O)(O)OP(=O)(O)OP(=O)(O)O)O3)c(=O)[nH]c2=O)cc(C)c1Oc1ccnc(Nc2ccc(C#N)cc2)n1 | 3 | 42
Cc1cc(C#N)cc(C)c1Oc1ccnc(Nc2ccc(C#N)cc2)n1 | 13 | 9
Cc1cn([C@H]2C=C[C@@H](COP(=O)(O)OP(=O)(O)OP(=O)(O)O)O2)c(=O)[nH]c1=O [STAVUDINE TRIPHOSPHATE] | 13000 | 
